Source: patent publication US9095561B2, “Methods for affecting homology-directed DNA double stranded break repair” (University of South Carolina, priority 2010, dated 2015)
Where a SMILES comes first, the peptide text is derived from it. The star is where a group is joined. Cbz = O=C(OCc1ccccc1)*

Assays:
RAD51 foci = RAD51 foci formation by immunofluorescence in MEFs; type: cell-based, mouse; conditions: MMC 200 ng/mL, 16 h exposure, RNF138 proficient MEFs; untreated control approximately 21 percent; p<0.01
Experimental: The presence of RAD51 foci was examined in MEFs subjected to either 200 ng/mL Mitomycin C (MMC) treatment or with no treatment. In addition, both deficient RNF138 cells and proficient RNF138 cells were examined.
For analysis of RAD51 foci formation, 10,000 cells were seeded onto glass coverslips for transfection with Rnf138 siRNA. Twenty-four hr following siRNA transfection, cells were challenged with MMC (200 ng/mL) for 16 hr. Immunofluoresence detection of RAD51 foci was carried out as is generally known I the art (see, e.g., Smiraldo et al., 2005). Cells containing five or more distinct foci were scored positive. For each condition, a minimum of 250 cells from at least three independent experiments was analyzed (n≧750).
The presence of RAD51 foci monitored by immunofluorescence is illustrated in FIGS. 12A-D. RAD51 foci indicates DNA damaged sites undergoing HR repair. MMC treatment (200 ng/mL) increased the percentage of cells containing 5 or more distinct RAD51 foci from approximately 21 percent for untreated control cells (FIG. 12B) to 51 percent (FIG. 12D) following a 16 h exposure (p<0.01). […] In addition, RAD51 foci formation was less in untreated RNF138 deficient (FIG. 12A) versus RNF138 proficient (FIG. 12B) MEFs. Although, a notable increase in RAD51 foci is still detected upon MMC treatment (FIG. 13).

HA-RAD51D = HA-RAD51D protein levels after CHX with or without proteasome inhibitor MG132; type: cell-based, mouse; parameters: HA-RAD51D protein levels elevated: dose or concentration left out as unconfirmed
Experimental: FIG. 18 illustrates analysis of MEFs that were treated with CHX ([…]) or CHX in combination with MG132 ([…]). Cell lysates were prepared at the 4 hour time point, and HA-RAD51D band intensity was calculated as described herein.
To determine whether decreased HA-RAD51D half-life can be attributed to proteasome degradation, HA-RAD51D protein levels were assessed following treatment with the proteasome inhibitor MG132. As anticipated, HA-RAD51D protein levels were elevated up to 42% in MG132 treated samples (FIG. 18, lanes 1-4) indicating RAD51D protein levels are in part regulated by the proteasome.

SMILES	percentage of cells containing 5 or more distinct RAD51 foci (RAD51 foci)	HA-RAD51D protein stability following knockdown of RNF138 expression (HA-RAD51D; CHX plus MG132, 4 hour time point, RNF138 knockdown MEFs)	HA-RAD51D protein levels elevated (HA-RAD51D; CHX, 4 hour time point, MEFs)
CO[C@@]12[C@H](COC(N)=O)C3=C(C(=O)C(C)=C(N)C3=O)N1C[C@@H]1N[C@@H]12 [MMC, Mitomycin C]	51%	–	–
CC(C)C[C@@H](C=O)NC(=O)[C@H](CC(C)C)NC(=O)[C@H](CC(C)C)NC(=O)OCc1ccccc1 [MG132] (Cbz-Leu-Leu-Leu-aldehyde)	–	failed to increase	up to 42%
